Structures can show the parent of a compound that is named as a salt. Where two headings read alike, the source gives them in different places.
Legend:
rh-AChE = rh-AChE (Homo sapiens, UniProt P22303); experiment: biochemical
rh-BuChE = rh-BuChE (Homo sapiens, UniProt P06276); experiment: IC50 rh-BuChE; format: biochemical
erythrocyte h-AChE = molecular target: T1, erythrocyte h-AChE (Homo sapiens, UniProt P22303); experiment: IC50 erythrocyte h-AChE; format: biochemical; conditions: read-out: IC50 erythrocyte h-AChE
T1 construct: from tissue; host or cells: human erythrocytes
T1 sequence (P22303 32-617 isoform P22303-2 limits assumed): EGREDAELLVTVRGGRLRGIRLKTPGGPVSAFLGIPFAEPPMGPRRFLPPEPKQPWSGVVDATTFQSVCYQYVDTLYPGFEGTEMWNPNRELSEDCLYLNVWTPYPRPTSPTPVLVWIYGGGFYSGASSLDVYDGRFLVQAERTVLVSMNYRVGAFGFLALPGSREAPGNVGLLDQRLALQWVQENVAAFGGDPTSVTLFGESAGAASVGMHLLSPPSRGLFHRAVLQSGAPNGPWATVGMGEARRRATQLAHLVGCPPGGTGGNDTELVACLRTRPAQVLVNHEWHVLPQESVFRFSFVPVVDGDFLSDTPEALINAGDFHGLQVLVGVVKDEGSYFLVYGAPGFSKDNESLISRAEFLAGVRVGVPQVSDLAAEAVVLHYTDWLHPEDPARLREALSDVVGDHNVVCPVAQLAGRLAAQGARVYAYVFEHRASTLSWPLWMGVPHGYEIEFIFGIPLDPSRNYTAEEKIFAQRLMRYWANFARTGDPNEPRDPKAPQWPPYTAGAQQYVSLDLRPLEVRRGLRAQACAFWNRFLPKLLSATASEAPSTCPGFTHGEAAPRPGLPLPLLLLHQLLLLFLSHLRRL

Chain of rh-BuChE (P06276 29-602): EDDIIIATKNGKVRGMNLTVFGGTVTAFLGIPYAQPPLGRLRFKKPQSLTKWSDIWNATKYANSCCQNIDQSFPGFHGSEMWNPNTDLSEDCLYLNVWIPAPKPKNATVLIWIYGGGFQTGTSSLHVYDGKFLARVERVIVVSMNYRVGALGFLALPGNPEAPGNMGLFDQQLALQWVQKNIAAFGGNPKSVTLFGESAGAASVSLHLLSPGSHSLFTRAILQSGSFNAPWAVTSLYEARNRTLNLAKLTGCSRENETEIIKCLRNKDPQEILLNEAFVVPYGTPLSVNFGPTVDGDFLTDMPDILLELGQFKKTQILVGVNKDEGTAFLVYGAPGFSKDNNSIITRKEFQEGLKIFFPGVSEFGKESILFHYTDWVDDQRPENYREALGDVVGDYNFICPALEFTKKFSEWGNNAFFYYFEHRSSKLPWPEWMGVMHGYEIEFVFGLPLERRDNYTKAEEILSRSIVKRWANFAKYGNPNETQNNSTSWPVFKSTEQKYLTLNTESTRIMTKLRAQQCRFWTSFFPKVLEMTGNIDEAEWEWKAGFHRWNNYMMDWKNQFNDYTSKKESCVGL
Chain of rh-AChE (P22303 32-614): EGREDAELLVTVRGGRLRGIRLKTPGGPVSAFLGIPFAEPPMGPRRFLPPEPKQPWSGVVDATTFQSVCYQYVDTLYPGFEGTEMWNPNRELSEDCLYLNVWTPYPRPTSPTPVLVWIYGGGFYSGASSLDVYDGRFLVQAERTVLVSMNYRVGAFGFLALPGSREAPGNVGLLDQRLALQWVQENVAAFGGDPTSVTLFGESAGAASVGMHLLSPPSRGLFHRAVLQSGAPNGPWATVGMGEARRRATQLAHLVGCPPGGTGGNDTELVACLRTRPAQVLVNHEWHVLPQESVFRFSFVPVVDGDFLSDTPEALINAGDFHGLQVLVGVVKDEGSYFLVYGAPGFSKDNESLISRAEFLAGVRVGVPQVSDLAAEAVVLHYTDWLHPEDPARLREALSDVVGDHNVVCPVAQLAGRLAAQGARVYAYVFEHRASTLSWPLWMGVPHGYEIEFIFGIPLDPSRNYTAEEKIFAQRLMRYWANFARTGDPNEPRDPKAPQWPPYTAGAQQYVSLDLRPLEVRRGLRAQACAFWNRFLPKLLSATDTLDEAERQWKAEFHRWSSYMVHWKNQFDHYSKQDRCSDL

Row | Compound | IC50 (rh-AChE; read-out: IC50 rh-AChE) | IC50 (rh-BuChE; read-out: IC50 rh-BuChE) | IC50 (erythrocyte h-AChE) | IC50 (rh-AChE) | IC50 (rh-BuChE)
1 | COc1cc2c(cc1OC)C(c1ccccc1)N(Cc1cn(CCCCC3=CC4Cc5nc6cc(Cl)ccc6c(N)c5C(C3)C4)nn1)CC2 (centres unmarked) [HUP32-PIQ1, 3-Chloro-9-(4-{4-[(6,7-dimethoxy-1-phenyl-3,4-dihydroisoquinolin-2(1H)-yl)methyl]-1H-1,2,3-triazol-1-yl}butyl)-6,7,10,11-tetrahydro-7,11-methanocycloocta[b]quinolin-12-amine Ditrifluoroacetic Acid] | 3.31 ± 0.2 nM | 20.6 ± 0.2 nM | – | – | –
2 | COc1cc2c(cc1OC)C(c1ccccc1)N(CCCc1cn(CCCCC3=CC4Cc5nc6cc(Cl)ccc6c(N)c5C(C3)C4)nn1)CC2 (centres unmarked) [HUP32-PIQ3, 3-Chloro-9-(4-{4-[3-(6,7-dimethoxy-1-phenyl-3,4-dihydroisoquinolin-2(1H)-yl)propyl]-1H-1,2,3-triazol-1-yl}butyl)-6,7,10,11-tetrahydro-7,11-methanocycloocta[b]quinolin-12-amine Ditrifluoroacetic Acid] | 0.61 ± 0.1 nM | 11.4 ± 0.6 nM | – | – | –
3 | COc1cc2c(cc1OC)C(c1ccccc1)N(CCCCc1cn(CCCCC3=CC4Cc5nc6cc(Cl)ccc6c(N)c5C(C3)C4)nn1)CC2 (centres unmarked) [HUP32-PIQ4, 3-Chloro-9-(4-{4-[4-(6,7-dimethoxy-1-phenyl-3,4-dihydroisoquinolin-2(1H)-yl)butyl]-1H-1,2,3-triazol-1-yl}butyl)-6,7,10,11-tetrahydro-7,11-methanocycloocta[b]quinolin-12-amine Ditrifluoroacetic Acid] | 0.78 ± 0.1 nM | 9.5 ± 0.6 nM | – | – | –
4 | CCOC(=O)CC1=CC2Cc3nc4cc(Cl)ccc4c(N)c3C(C1)C2 (centres unmarked) [HUP 1, Ethyl (12-Amino-3-chloro-6,7,10,11-tetrahydro-7,11-methanocycloocta[b]quinolin-9-yl)acetate] | 3.9 ± 0.5 nM | 137 ± 11 nM | 38.3 nM | – | –
5 | C=CC1=CC2Cc3nc4cc(Cl)ccc4c(N)c3C(C1)C2 (centres unmarked) [HUP 3, 3-Chloro-9-vinyl-6,7,10,11-tetrahydro-7,11-methanocycloocta[b]quinolin-12-amine Trifluoroacetic Acid] | 1.32 ± 0.17 nM | 180 ± 13 nM | 405 nM | – | –
6 | CC(=O)OCCC1=CC2Cc3nc4cc(Cl)ccc4c(N)c3C(C1)C2 (centres unmarked) [HUP 4, 2-(12-Amino-3-chloro-6,7,10,11-tetrahydro-7,11-methanocycloocta[b]quinolin-9-yl)ethyl Acetate] | 1.44 ± 0.18 nM | – | 12 nM | – | –
7 | Nc1c2c(nc3cc(Cl)ccc13)CC1C=C(CCOC(=O)C(F)(F)F)CC2C1 (centres unmarked) [HUP 5, 2-(12-Amino-3-chloro-6,7,10,11-tetrahydro-7,11-methanocycloocta[b]quinolin-9-yl)ethyl Trifluoroacetate] | 1.69 ± 0.16 nM | 1360 nM | 27.5 nM | – | –
8 | COCCC1=CC2Cc3nc4cc(Cl)ccc4c(N)c3C(C1)C2 (centres unmarked) [HUP 6, 3-Chloro-9-(2-methoxyethyl)-6,7,10,11-tetrahydro-7,11-methanocycloocta[b]quinolin-12-amine] | 1.75 ± 0.21 nM | 401 ± 26 nM | 4.5 nM | – | –
9 | Nc1c2c(nc3cc(Cl)ccc13)CC1C=C(CCI)CC2C1 (centres unmarked) [HUP 7, 3-Chloro-9-(2-iodoethyl)-6,7,10,11-tetrahydro-7,11-methanocycloocta[b]quinolin-12-amine] | 2.7 ± 0.82 nM | 141 ± 7 nM | – | – | –
10 | N#CCCC1=CC2Cc3nc4cc(Cl)ccc4c(N)c3C(C1)C2 (centres unmarked) [HUP 8, 3-(12-Amino-3-chloro-6,7,10,11-tetrahydro-7,11-methanocycloocta[b]quinolin-9-yl)propanenitrile Trifluoroacetic Acid] | 3.15 ± 0.42 nM | 514 ± 58 nM | – | – | –
11 | Nc1c2c(nc3cc(Cl)ccc13)CC1C=C(CCCl)CC2C1 (centres unmarked) [HUP 9, 3-Chloro-9-(2-chloroethyl)-6,7,10,11-tetrahydro-7,11-methanocycloocta[b]quinolin-12-amine Trifluoroacetic Acid] | 3.56 ± 0.2 nM | 207 ± 12 nM | 5.09 nM | – | –
12 | Nc1c2c(nc3cc(Cl)ccc13)CC1C=C(CCF)CC2C1 (centres unmarked) [HUP 10, 3-Chloro-9-(2-fluoroethyl)-6,7,10,11-tetrahydro-7,11-methanocycloocta[b]quinolin-12-amine] | 4.16 ± 0.79 nM | 522 ± 120 nM | – | – | –
13 | Nc1c2c(nc3cc(Cl)ccc13)CC1C=C(CC(=O)O)CC2C1 (centres unmarked) [HUP 11, 12-Amino-3-chloro-9-carboxymethyl-6,7,10,11-tetrahydro-7,11 methanocycloocta[b]quinoline Hydrochloride] | – | – | – | 5.3 ± 1.1 nM | –
14 | [N-]=[N+]=NCCC1=CC2Cc3nc4cc(Cl)ccc4c(N)c3C(C1)C2 (centres unmarked) [HUP 12, 9-(2-Azidoethyl)-3-chloro-6,7,10,11-tetrahydro-7,11-methanocycloocta[b]quinolin-12-amine] | 5.56 ± 0.82 nM | 522 ± 120 nM | – | – | –
15 | CS(=O)(=O)OCCC1=CC2Cc3nc4cc(Cl)ccc4c(N)c3C(C1)C2 (centres unmarked) [HUP 13, 2-(12-Amino-3-chloro-6,7,10,11-tetrahydro-7,11-methanocycloocta[b]quinolin-9-yl) Ethyl Methanesulfonate] | 8.5 ± 1.1 nM | 415 ± 97 nM | – | – | –
16 | NNCCC1=CC2Cc3nc4cc(Cl)ccc4c(N)c3C(C1)C2 (centres unmarked) [HUP 14, 3-Chloro-9-(2-hydrazinoethyl)-6,7,10,11-tetrahydro-7,11-methanocyclo octa[b]quinolin-12-amine Ditrifluoroacetic Acid] | 9.5 ± 2.7 nM | – | – | – | 668 ± 110 nM

Row | Compound | IC50 (rh-AChE; read-out: IC50 rh-AChE) | IC50 (rh-BuChE; read-out: IC50 rh-BuChE) | IC50 (erythrocyte h-AChE) | IC50 (rh-AChE) | IC50 (rh-BuChE)
17 | Nc1c2c(nc3cc(Cl)ccc13)CC1C=C(CCNO)CC2C1 (centres unmarked) [HUP 15, 3-Chloro-9-[2-(hydroxyamino)ethyl]-6,7,10,11-tetrahydro-7,11-methano cycloocta[b]quinolin-12-amine Ditrifluoroacetic Acid] | 18.5 ± 2.2 nM | – | – | – | –
18 | CC(C)(C)OC(=O)ON(CCC1=CC2Cc3nc4cc(Cl)ccc4c(N)c3C(C1)C2)C(=O)OC(C)(C)C (centres unmarked) [HUP 16, Tert-butyl[2-(12-amino-3-chloro-6,7,10,11-tetrahydro-7,11-methanocycloocta[b]quinolin-9-yl)ethyl][(tert-butoxycarbonyl)oxy]carbamate] | 14.8 ± 3.2 nM | 421 ± 72 nM | – | – | –
19 | NC(=O)OCCC1=CC2Cc3nc4cc(Cl)ccc4c(N)c3C(C1)C2 (centres unmarked) [HUP 17, 2-(12-Amino-3-chloro-6,7,10,11-tetrahydro-7,11-methanocycloocta[b]quinolin-9-yl)ethyl Carbamate Trifluoroacetic Acid] | 18.5 ± 2.2 nM | 413 ± 40 nM | – | – | –
20 | CN(C)C(=O)CC1=CC2Cc3nc4cc(Cl)ccc4c(N)c3C(C1)C2 (centres unmarked) [HUP 19, 2-(12-Amino-3-chloro-6,7,10,11-tetrahydro-7,11-methanocycloocta[b]quinolin-9-yl)-N,N-dimethylacetamide Trifluoroacetic Acid] | 26.3 ± 1.7 nM | 2760 nM | – | – | –
21 | NC(=O)CC1=CC2Cc3nc4cc(Cl)ccc4c(N)c3C(C1)C2 (centres unmarked) [HUP 20, 2-(12-Amino-3-chloro-6,7,10,11-tetrahydro-7,11-methanocycloocta[b]quinolin-9-yl)acetamide Trifluoroacetic Acid] | 29.3 ± 3.7 nM | – | – | – | –
22 | CN(C)CCC1=CC2Cc3nc4cc(Cl)ccc4c(N)c3C(C1)C2 (centres unmarked) [HUP 21, 3-Chloro-9-[2-(dimethylamino)ethyl]-6,7,10,11-tetrahydro-7,11-methano cycloocta[b]quinolin-12-amine Ditrifluoroacetic Acid] | 97 ± 10 nM | – | – | – | 2910 nM
23 | COC(=O)c1cn(CCC2=CC3Cc4nc5cc(Cl)ccc5c(N)c4C(C2)C3)nn1 (centres unmarked) [HUP 22, Methyl 1-[2-(12-amino-3-chloro-6,7,10,11-tetrahydro-7,11-methanocycloocta[b]quinolin-9-yl)ethyl]-1H-1,2,3-triazole-4-carboxylate] | 130 ± 15 nM | – | – | – | –
24 | Nc1c2c(nc3cc(Cl)ccc13)CC1C=C(CCn3cc(CO)nn3)CC2C1 (centres unmarked) [HUP 23, {1-[2-(12-Amino-3-chloro-6,7,10,11-tetrahydro-7,11-methanocycloocta[b]quinolin-9-yl)ethyl]-1H-1,2,3-triazol-4-yl}methanol Trifluoroacetic Acid] | 210 ± 28 nM | – | – | – | –
25 | C[N+](C)(C)CCC1=CC2Cc3nc4cc(Cl)ccc4c(N)c3C(C1)C2 (centres unmarked) [HUP 25, 2-(12-Amino-3-chloro-6,7,10,11-tetrahydro-7,11-methanocycloocta[b]quinolin-9-yl)-N,N,N-trimethylethanaminium Ditrifluoroacetic Acid] | 262 ± 22 nM | – | – | – | –
26 | Nc1c2c(nc3cc(Cl)ccc13)CC1C=C(CCC(CO)CO)CC2C1 (centres unmarked) [HUP 28, 2-[2-(12-Amino-3-chloro-6,7,10,11-tetrahydro-7,11-methanocycloocta[b]quinolin-9-yl)ethyl]propane-1,3-diol Trifluoroactic Acid] | 24.7 ± 1.2 nM | – | 40.2 nM | – | –
27 | Nc1c2c(nc3cc(Cl)ccc13)CC1C=C(CCCCn3cc(COC(=O)C(F)(F)F)nn3)CC2C1 (centres unmarked) [HUP 35, {1-[4-(12-Amino-3-chloro-6,7,10,11-tetrahydro-7,11-methanocycloocta[b]quinolin-9-yl)butyl]-1H-1,2,3-triazol-4-yl}methyl Trifluoroacetate] | 34.6 ± 2.6 nM | – | 69.8 nM | – | –
28 | C=C1c2nc3cc(Cl)ccc3c(N)c2C2CC(CCCC(=O)OCC)=CC1C2 (centres unmarked) [HUP 36, Ethyl 4-(12-Amino-3-chloro-6-methylene-6,7,10,11-tetrahydro-7,11-methanocycloocta[b]quinolin-9-yl)butanoate] | 90.6 ± 8.4 nM | – | – | – | –
29 | C=C1c2nc3cc(Cl)ccc3c(N)c2C2CC(CCCCO)=CC1C2 (centres unmarked) [HUP 37, 4-(12-Amino-3-chloro-6-methylene-6,7,10,11-tetrahydro-7,11-methanocycloocta[b]quinolin-9-yl)butan-1-ol Trifluoroacetic Acid] | 256 ± 34 nM | – | – | – | –
30 | Nc1c2c(nc3ccccc13)CC1C=C(CCCCn3cc(CO)nn3)CC2C1 (centres unmarked) [HUP 38, {1-[4-(12-Amino-6,7,10,11-tetrahydro-7,11-methanocycloocta[b]quinolin-9-yl)butyl]-1H-1,2,3-triazol-4-yl}methanol Trifluoroacetic Acid] | 94.1 ± 2.8 nM | 357 ± 16 nM | – | – | –
31 | CS(=O)(=O)OCCC1=CC2Cc3nc4ccccc4c(N)c3C(C1)C2 (centres unmarked) [HUP 39, 2-(12-Amino-6,7,10,11-tetrahydro-7,11-methanocycloocta[b]quinolin-9-yl) Ethyl Methanesulfonate] | 149 ± 6 nM | 171 ± 4 nM | – | – | –

From patent publication US9040506B2, “7,11-methanocycloocta [B] quinoline derivative as highly functionalizable acetylcholinesterase inhibitors” (priority 2010, dated 2015)
